Entries after “also recorded” stand apart in the source; their conditions may differ. Like-named read-outs stand apart in the source and are kept apart here.

Consider 12 compounds from PMC6928688, “Identification of Novel PI3Kδ Selective Inhibitors by SVM-Based Multistage Virtual Screening and Molecular Dynamics Simulations” (International Journal of Molecular Sciences, 2019).

Assay type in all cases: biochemical
In assay [1] the target is T1, recombinant PI3Kδ kinase (Homo sapiens, UniProt O00329). As to the kind of experiment: Cell free PI3Kδ kinase activity, ADP-Glo chemiluminescence assay. An excerpt: The chemiluminescence method was used to determine the inhibitory effect of the 15 hit compounds on PI3Kδ (Table 5). […] For 14317, the reason for its high activity was probably the long side chain on its guanine, which was the same as the reported PI3Kδ selective inhibitor Compound 1 (idelalisib) and Compound 7 (GNE-293). For Compounds 9 and 10, the reason the pyridazinone skeleton made them so active requires further study. Finally, the two compounds with the novel skeleton were selected for the subsequent molecular dynamics (MD) simulations. […]
The inhibitory activities of inhibitors against PI3Kδ were determined by the ADP-Glo assay. The recombinant PI3Kδ kinase was diluted to 2.2 μg/mL using reaction buffer (50 mM HEPES, pH 7.5, 10 mM MgCl2, 0.1 mg/mL BSA, 2 mM DTT, 1% DMSO), and ATP was diluted with reaction buffer (10 mM) to 250 μM, and the test compound and positive drug (idelalisib) were formulated into four concentration-gradient solutions (6 × 10^−2 M, 6 × 10^−4 M, 6 × 10^−6 M, 6 × 10^−8 M). The reaction was started by sequentially adding 2 μL of an ATP solution, 1 μL of a drug solution, and 2 μL of an enzyme solution in 96 wells. The assay was conducted for 1 h at 37 °C before the addition of 5 μL ADP-Glo reagent and incubation for 40 min at room temperature. A 10 μL amount of kinase detection reagent (Promega, Beijing, China) was added and incubated for 30 min at room temperature before the luminescence value was measured using a chemiluminescence module of a full-wavelength multi-function microplate reader (PerkinElmer, Singapore).
Background: ADP-Glo first removes unused ATP, then detects ADP through luciferase.

The target in another assay is PI3Kβ (Homo sapiens, UniProt P42338). The experiment in a line: PI3K isoform selectivity, chemiluminescence kinase assay (β). The following applies: isoform selectivity experiment.
Assay [2] has as its target T1, recombinant PI3Kδ kinase. As to the kind of experiment: Cell free PI3Kδ kinase activity, ADP-Glo chemiluminescence assay. Conditions: PI3Kδ versus α, β, γ.
A further assay has as its target PI3Kγ (Homo sapiens, UniProt P48736). As to the kind of experiment: PI3K isoform selectivity, chemiluminescence kinase assay (γ). The following applies: isoform selectivity experiment.
A further assay deals with PI3Kα (Homo sapiens, UniProt P42336). The experiment in a line: PI3K isoform selectivity, chemiluminescence kinase assay (α). The following applies: isoform selectivity experiment.
Setting [3] is: 15 hit compounds from NCI database, chemiluminescence method, read-out: PI3Kδ IC50.

T1 sequence (O00329 whole entry): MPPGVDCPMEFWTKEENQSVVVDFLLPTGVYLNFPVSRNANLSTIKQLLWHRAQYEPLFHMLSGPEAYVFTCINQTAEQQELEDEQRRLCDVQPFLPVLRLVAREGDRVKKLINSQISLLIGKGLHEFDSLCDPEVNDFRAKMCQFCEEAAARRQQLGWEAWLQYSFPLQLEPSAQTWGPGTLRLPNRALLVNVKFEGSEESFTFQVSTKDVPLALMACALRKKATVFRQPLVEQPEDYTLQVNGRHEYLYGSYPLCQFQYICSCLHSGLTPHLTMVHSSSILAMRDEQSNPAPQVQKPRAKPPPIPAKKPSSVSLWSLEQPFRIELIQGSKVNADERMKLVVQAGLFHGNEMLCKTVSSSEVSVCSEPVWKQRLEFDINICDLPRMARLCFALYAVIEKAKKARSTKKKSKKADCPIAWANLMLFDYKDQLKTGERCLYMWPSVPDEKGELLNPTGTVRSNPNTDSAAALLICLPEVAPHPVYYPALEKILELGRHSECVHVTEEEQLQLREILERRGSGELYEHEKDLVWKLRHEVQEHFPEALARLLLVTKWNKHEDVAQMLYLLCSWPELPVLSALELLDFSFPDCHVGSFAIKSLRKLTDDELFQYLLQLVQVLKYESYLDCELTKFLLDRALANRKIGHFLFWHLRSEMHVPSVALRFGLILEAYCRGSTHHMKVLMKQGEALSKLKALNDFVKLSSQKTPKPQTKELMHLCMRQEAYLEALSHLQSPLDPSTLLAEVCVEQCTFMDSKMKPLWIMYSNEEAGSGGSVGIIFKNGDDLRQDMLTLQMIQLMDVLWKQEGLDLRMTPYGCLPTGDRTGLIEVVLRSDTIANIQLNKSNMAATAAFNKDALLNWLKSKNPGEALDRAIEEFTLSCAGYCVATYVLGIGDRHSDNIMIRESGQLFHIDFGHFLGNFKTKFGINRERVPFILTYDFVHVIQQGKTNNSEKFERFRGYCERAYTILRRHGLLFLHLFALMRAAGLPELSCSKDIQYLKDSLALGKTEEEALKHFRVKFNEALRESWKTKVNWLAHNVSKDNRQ
T1 sequence (P27986 whole entry partner): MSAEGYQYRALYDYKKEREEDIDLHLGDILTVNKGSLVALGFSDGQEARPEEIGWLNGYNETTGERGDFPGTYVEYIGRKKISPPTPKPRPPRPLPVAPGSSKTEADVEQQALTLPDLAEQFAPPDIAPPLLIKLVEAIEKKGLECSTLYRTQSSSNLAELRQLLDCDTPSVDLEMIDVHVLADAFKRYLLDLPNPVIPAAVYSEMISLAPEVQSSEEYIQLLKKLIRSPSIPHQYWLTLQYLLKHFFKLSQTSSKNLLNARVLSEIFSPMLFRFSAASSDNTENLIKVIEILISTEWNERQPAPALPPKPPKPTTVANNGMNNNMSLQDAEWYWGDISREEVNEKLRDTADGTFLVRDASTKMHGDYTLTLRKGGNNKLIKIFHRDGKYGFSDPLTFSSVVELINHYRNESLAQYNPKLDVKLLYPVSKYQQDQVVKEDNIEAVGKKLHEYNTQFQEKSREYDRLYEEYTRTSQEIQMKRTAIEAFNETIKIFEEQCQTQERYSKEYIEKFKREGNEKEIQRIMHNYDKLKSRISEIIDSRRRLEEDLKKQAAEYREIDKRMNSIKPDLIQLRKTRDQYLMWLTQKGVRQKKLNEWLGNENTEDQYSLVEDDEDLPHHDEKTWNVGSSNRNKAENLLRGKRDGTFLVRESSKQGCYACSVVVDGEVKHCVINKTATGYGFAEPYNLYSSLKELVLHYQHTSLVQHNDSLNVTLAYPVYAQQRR
PI3Kα, sequence (P42336 whole entry, species assumed, canonical isoform): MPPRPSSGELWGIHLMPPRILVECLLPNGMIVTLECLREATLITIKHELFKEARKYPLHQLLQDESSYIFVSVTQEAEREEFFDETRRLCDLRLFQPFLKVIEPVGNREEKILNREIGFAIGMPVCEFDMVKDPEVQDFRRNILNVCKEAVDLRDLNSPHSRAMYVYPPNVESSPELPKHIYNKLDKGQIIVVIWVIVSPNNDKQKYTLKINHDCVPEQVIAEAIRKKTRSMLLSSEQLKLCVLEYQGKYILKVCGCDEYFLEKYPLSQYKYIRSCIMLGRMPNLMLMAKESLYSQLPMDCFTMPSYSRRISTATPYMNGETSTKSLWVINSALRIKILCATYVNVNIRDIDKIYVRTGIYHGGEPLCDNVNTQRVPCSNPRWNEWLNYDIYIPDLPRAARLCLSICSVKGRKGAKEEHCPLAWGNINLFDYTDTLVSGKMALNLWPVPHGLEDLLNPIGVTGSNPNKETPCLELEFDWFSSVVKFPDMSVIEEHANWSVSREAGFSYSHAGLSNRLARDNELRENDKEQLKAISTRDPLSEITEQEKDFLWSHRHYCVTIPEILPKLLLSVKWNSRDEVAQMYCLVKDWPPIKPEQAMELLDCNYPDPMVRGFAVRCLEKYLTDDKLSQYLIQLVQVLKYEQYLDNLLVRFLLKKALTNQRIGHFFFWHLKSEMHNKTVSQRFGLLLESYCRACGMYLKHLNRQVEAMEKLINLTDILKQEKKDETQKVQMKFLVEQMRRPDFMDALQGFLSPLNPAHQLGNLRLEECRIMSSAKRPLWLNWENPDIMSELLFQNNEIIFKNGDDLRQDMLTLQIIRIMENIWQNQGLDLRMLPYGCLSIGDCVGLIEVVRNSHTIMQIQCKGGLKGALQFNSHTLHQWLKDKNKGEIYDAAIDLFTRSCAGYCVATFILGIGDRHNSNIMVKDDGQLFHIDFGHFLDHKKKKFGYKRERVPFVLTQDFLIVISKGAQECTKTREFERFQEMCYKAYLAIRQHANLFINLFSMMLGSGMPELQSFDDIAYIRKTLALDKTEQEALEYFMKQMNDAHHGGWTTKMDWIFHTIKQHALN
PI3Kα, sequence (P27986 whole entry partner, species assumed, canonical isoform): as the sequence (P27986 whole entry partner) above
PI3Kγ, sequence (P48736 whole entry, canonical isoform): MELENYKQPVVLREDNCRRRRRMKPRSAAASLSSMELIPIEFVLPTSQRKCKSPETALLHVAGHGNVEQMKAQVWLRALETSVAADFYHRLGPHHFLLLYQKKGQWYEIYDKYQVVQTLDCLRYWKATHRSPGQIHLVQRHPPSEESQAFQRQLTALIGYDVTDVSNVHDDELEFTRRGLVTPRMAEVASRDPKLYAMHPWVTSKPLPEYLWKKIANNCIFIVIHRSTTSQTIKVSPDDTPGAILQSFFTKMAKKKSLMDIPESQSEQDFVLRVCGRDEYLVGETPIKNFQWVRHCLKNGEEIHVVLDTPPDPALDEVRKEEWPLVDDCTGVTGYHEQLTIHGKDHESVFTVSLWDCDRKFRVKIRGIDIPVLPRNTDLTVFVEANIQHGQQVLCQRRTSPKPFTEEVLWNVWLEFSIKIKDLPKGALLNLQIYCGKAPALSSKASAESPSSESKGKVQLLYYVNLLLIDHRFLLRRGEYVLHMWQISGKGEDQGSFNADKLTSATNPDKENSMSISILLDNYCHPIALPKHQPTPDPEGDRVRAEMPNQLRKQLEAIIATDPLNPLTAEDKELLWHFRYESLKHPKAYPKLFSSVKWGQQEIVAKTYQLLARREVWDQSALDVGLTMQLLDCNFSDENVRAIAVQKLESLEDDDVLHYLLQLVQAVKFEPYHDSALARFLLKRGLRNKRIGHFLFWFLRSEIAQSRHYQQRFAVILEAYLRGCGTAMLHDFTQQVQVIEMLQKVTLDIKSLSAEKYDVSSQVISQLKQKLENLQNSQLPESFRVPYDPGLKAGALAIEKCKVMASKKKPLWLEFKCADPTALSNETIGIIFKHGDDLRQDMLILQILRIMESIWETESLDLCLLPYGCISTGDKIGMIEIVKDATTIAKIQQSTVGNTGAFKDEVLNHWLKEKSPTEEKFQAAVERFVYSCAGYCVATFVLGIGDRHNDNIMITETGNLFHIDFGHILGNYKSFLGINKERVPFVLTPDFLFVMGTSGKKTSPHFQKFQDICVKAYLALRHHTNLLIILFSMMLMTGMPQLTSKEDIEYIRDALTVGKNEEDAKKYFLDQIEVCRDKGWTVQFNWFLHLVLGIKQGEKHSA
PI3Kβ, sequence (P42338 whole entry, canonical isoform): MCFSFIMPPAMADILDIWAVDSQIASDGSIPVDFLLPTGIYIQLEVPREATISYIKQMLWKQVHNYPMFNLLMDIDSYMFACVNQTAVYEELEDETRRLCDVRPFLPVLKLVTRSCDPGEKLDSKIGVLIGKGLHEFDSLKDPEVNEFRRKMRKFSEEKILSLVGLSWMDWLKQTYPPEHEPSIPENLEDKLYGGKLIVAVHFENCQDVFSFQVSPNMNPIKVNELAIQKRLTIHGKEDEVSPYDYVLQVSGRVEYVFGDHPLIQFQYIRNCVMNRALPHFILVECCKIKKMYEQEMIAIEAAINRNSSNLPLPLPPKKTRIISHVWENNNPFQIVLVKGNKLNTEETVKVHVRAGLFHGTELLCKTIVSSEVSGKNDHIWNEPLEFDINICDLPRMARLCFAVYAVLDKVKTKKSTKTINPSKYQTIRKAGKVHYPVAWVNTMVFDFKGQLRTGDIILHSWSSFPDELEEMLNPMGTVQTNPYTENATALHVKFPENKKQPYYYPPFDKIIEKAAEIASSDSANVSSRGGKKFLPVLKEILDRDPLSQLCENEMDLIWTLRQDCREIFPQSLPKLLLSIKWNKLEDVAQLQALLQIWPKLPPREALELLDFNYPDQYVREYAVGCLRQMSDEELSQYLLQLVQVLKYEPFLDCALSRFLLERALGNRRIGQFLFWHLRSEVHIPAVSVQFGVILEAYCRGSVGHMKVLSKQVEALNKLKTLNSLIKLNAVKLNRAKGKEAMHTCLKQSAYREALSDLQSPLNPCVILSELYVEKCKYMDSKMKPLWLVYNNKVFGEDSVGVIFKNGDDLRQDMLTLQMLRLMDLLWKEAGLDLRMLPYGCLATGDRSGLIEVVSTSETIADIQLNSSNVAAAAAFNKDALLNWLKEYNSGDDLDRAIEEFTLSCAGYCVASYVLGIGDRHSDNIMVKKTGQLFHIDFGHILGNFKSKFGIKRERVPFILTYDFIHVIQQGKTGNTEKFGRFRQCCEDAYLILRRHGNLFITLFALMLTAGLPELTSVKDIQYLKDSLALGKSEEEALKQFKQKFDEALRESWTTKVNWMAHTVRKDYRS
PI3Kβ, sequence (P27986 whole entry partner, canonical isoform): as the sequence (P27986 whole entry partner) above

Turning to `CC/C(=N\Nc1cn[nH]c(=O)c1Br)c1ccccc1` [Compound 9], at recombinant PI3Kδ kinase [1] (setting [3]), the half-inhibitory concentration (IC50) stood at 72.2 µM.

Consider `C/C(=N\Nc1cn[nH]c(=O)c1Br)c1ccccc1` [Compound 10], for which the concentration for half-maximal inhibition (IC50) was found to be 188 µM against PI3Kβ, 226 µM against PI3Kγ, 18.9 µM at recombinant PI3Kδ kinase [1] (setting [3]) and 75 µM on PI3Kα. For the same compound, the PI3K isoform selectivity entry at recombinant PI3Kδ kinase [2] is “significant selectivity; also recorded: high isoform selectivity”. Consider `CCN(CC)CCOc1nc2c(c(=O)n(C)c(=O)n2C)n1C` [Compound 14317], for which, at recombinant PI3Kδ kinase [1] (setting [3]), the half-maximal inhibitory concentration (IC50) worked out at 28.1 µM. As to `CCOC(=O)c1cc(Sc2ccccc2)nc2ccccc12` [Compound 25679], on recombinant PI3Kδ kinase [1] (setting [3]), the 50% inhibitory concentration (IC50) stood at 289 µM. Consider `COc1c2c(c3c(c1OC)c(=O)c1ccccc1n3C)OCO2` [Compound 34758], for which, at recombinant PI3Kδ kinase [1] (setting [3]), the concentration for half-maximal inhibition (IC50) is 481 µM. For the compound `CCOC(=O)Nc1ccc2c(c1Cl)C(=O)c1ccccc1C2=O` [Compound 39951], the IC50 at recombinant PI3Kδ kinase [1] (setting [3]) worked out at 522 µM. Turning to `CC(=O)Nc1cc2c(cc1Cl)-c1ccc(Cl)cc1C2=O` [Compound 57442], the half-inhibitory concentration (IC50) at recombinant PI3Kδ kinase [1] (setting [3]) was found to be 500 µM.

On to `CC(=O)Nc1cc2c(cc1Br)-c1ccc(F)cc1C2=O` [Compound 73075], for which the IC50 at recombinant PI3Kδ kinase [1] (setting [3]) turned out to be 248 µM. Regarding `O=C1c2ccccc2-c2cc(Br)c(NC(=O)C(F)(F)F)cc21` [Compound 80144], at recombinant PI3Kδ kinase [1] (setting [3]), the IC50 was 809 µM.

On to `COc1cc(OC)c(OC)cc1/C=C/c1ccnc2ccccc12` [Compound 80756], for which, on recombinant PI3Kδ kinase [1] (setting [3]), the half-inhibitory concentration (IC50) was 192 µM. Still for that read-out and setting: for `CSc1cc2c(cc1NC(C)=O)C(=O)c1cc(F)ccc1-2` [Compound 109638] the value was 169 µM.

For `O=c1cc(N2CCOCC2)oc2c(-c3ccccc3)cccc12` [LY294002, reference compound], the IC50 on recombinant PI3Kδ kinase [1] (read-out: PI3K IC50 δ) was 3.49 µM.

A word on the IC50: it is the midpoint of a concentration-inhibition curve.
